Measurements published in patent US10266527B2, “T-box riboswitch-binding anti-bacterial compounds” (THE RESEARCH FOUNDATION FOR THE STATE UNIVERSITY OF NEW YORK, priority 2013, dated 2019).
In brackets after ≈: the same amount, converted by molar mass. Where two headings read alike, the source gives them in different places. Blank lines part the entries; values can stand above or below the compound they belong to.

What was measured:
Type in all cases: cell-based
S. aureus = assay: Disc diffusion assay (DDA) of PKZ6 and PKZ18 analogs with S. aureus; details: Table 4, 150 μg/ml, ✓ = zone of inhibition observed
From the text: (§1) The identity and purity of both PKZ 6 and 18 was confirmed by mass spectroscopy. Forty commercially available compounds chosen on the basis of initial in silico selections and similarity to our two hits were screened by disc diffusion assay (DDA) to determine their relative antibacterial activity with S. aureus. […] These 14 compounds were further evaluated by minimum inhibitory concentration assays (MIC)^41,42, and minimum bactericidal assays (MBC)^41 to confirm antibacterial activity, determine the concentration at which S. aureus growth is inhibited in liquid culture (MIC) and if they are acting as bacteriostatic or bactericidal agents (MBC). […] Representative embodiments are shown below.
All compounds were tested at a concentration of 150 μg/ml.

S. aureus ATCC 29213 [1] = assay: MBC determination; details: for S. aureus (MBC): Table 5 analogs, triplicate experiments, N/O = not observed at concentrations tested (512-0.25 μg/mL)
From the text: as §1
(§2) Following 24 h incubation of these subcultures at 37° C., MBC values were recorded as the lowest compound concentration at which no viable colonies were observed.

S. aureus ATCC 29213 [2] = assay: Broth microdilution MIC
From the text: as §1
(§3) Broth microdilution assays^77, 78 were performed with B. subtilis, and S. aureus to determine the lowest compound concentration inhibiting visible growth, i.e., minimum inhibitory concentration (MIC) of the 4 original compounds. […] The insolubility of the fourth compound may account for its lack of antibacterial activity. […] The MICs of each compound are moderate.
(§4) Strains were grown on trypticase soy agar (TSA) with 5% sheep blood at 37° C. for 24 hours. Five isolated colonies were used to inoculate 5 mL cation-adjusted Mueller-Hinton broth (CAMHB) contained in a 50 mL centrifuge tube. The resulting culture was incubated shaking at 200 rpm for 3 hours at 37° C. and then diluted in CAMHB until its turbidity matched that of a 0.5 McFarland standard (OD625 0.08-0.10). After the culture had been standardized against a 0.5 McFarland standard, it was diluted 1:10 in CAMHB and then 5 μL of this dilution was added to the appropriate wells of a 96-well, flat-bottomed tissue culture plate in which each row contained a twofold dilution series of a particular compound ranging in concentration from 0.25 μg/mL to 512 μg/mL. Each plate also included a sterility control well containing CAMHB to which standardized inoculum was not added and a growth control well containing CAMHB to which 5 μL standardized inoculum was added. […] With the exception of the sterility control well, all wells were inoculated within 15 minutes of inoculum preparation to ensure that the starting concentration of bacteria in each well was approximately 5×10^5 CFU/m L. A Tecan Sunrise microplate absorbance reader was used to measure the OD620 of each well before and after 20 h incubation at 37° C. MIC values were recorded as the lowest compound concentration at which no visible growth was observed after this incubation period.

E. coli ATCC 25922 [3] = assay: MBC determination; details: for E. coli (MBC): Table 5 analogs, triplicate experiments, N/O = not observed at concentrations tested (512-0.25 μg/mL); for MBC: Escherichia coli, ATCC25922, E. coli ATCC 25922, read-out: MBC
Description: as §2

E. coli ATCC 25922 [4] = assay: Broth microdilution MIC (Gram negative specificity control); details: for MIC: Escherichia coli, ATCC25922; for antibacterial activity against E. coli (in words): E. coli negative control without T-box riboswitch
[5] = system: Human Embryonic Kidney (HEK293) cells; assay: Toxicity on a monolayer of HEK293 cells
B. cereus ATCC 7064 [6] = assay: Broth microdilution MIC; details: for MIC: Bacillus cereus, ATCC7064, B. cereus ATCC 7064, read-out: MIC
B. subtilis BGSC 1A1 [7] = assay: Broth microdilution MIC; details: for MIC: Bacillus subtilis, BGSC1A1, B. subtilis BGSC 1A1, 20 h at 37° C., read-out: MIC
Description: as §3, §4

P. aeruginosa ATCC 27853 = assay: Broth microdilution MIC; details: N/O = not observed
S. pneumoniae ATCC 49619 = assay: Broth microdilution MIC; details: for MIC: Streptococcus pneumoniae, ATCC49619, S. pneumoniae ATCC 49619, read-out: MIC
E. faecalis ATCC 29212 [8] = assay: Broth microdilution MIC; details: Enterococcus faecalis, ATCC29212, N/O = not observed, read-out: MIC
E. faecalis ATCC 29212 [9] = assay: MBC determination; details: N/O = not observed
Description: as §2

B. cereus ATCC 7064 [10] = assay: MBC determination
Description: as §2

B. subtilis BGSC 1A1 [11] = assay: MBC determination; details: IND = indeterminate
Description: as §2

B. subtilis = assay: Disc diffusion assay, growth inhibition of B. subtilis; details: Table 1, ✓ = zone of inhibition observed
From the text: The same 20 top binders and 8 additional predicted to interact with the cleft of the tyrRS mRNA Specifier Loop were selected from subsequent docking and preliminary fluorescence data.

[12] = Staphylococcus aureus, ATCC29213, Table 5 analogs, triplicate experiments, N/O = not observed at concentrations tested (512-0.25 μg/mL), read-out: S. aureus MIC
[13] = Table 5 analogs, triplicate experiments, N/O = not observed at concentrations tested (512-0.25 μg/mL), read-out: E. coli MIC
[14] = S. aureus ATCC 29213, N/O = not observed
[15] = E. coli ATCC 25922, N/O = not observed, read-out: MIC

Compound: O=c1cc(O)c2c(=O)n3c4c(cccc4c2o1)CCC3 [Compound 0611]
- ZOI observed (S. aureus): ✓

Compound: CCCc1ccc(-c2nc(NC(=O)C3CC(C)=C(C)CC3C(=O)O)sc2C)cc1 (stereo not drawn) [Compound 1808]
- ZOI observed (S. aureus): ✓

Compound: CCCn1c(=O)c(C(=O)NCCN2CCNCC2)c(O)c2ccccc21 [Compound 0610]
- ZOI observed (S. aureus): ✓

- MIC (S. aureus ATCC 29213 [2]; [12]): 512 µg/mL (≈ 1620 µM)
- MIC (E. coli ATCC 25922 [4]; [13]): 256 µg/mL (≈ 809 µM)
Compound: O=C(NCCN1CCNCC1)c1c(O)c2ccccc2[nH]c1=O [Compound 0607]
- ZOI observed (S. aureus): ✓
- S. aureus (MBC) (S. aureus ATCC 29213 [1]): N/O
- E. coli (MBC) (E. coli ATCC 25922 [3]): N/O

Compound: NCCNC(=O)c1c(O)c2cccc3c2n(c1=O)CCC3 [Compound 0615]
- ZOI observed (S. aureus): ✓

- MIC (S. aureus ATCC 29213 [2]; [12]): 256 µg/mL (≈ 666 µM)
- MIC (E. coli ATCC 25922 [4]; [13]): 512 µg/mL (≈ 1330 µM)
Compound: CC1=C(C)CC(C(=O)Nc2nc(-c3ccc(C)cc3)c(C)s2)C(C(=O)O)C1 (stereo not drawn) [Compound 1810]
- ZOI observed (S. aureus): ✓
- S. aureus (MBC) (S. aureus ATCC 29213 [1]): N/O
- E. coli (MBC) (E. coli ATCC 25922 [3]): N/O

Compound: CCn1c(=O)c(C(=O)NCCN2CCNCC2)c(O)c2ccccc21 [Compound 7]
- 16 hr post exposure % Live ([5]; 32 ug/ml): 100%
- 16 hr post exposure Morphology ([5]; 32 ug/ml): Normal
- 24 hr post exposure % Confluent ([5]; 32 ug/ml): 90%
- 24 hr post exposure % Live ([5]; 32 ug/ml): 90%
- 24 hr post exposure Morphology ([5]; 32 ug/ml): Normal
- 16 hr post exposure % Live ([5]; 64 ug/ml): 80%
- 16 hr post exposure Morphology ([5]; 64 ug/ml): Mix of Normal and Detached
- 24 hr post exposure % Confluent ([5]; 64 ug/ml): 80%
- 24 hr post exposure % Live ([5]; 64 ug/ml): 75%
- 24 hr post exposure Morphology ([5]; 64 ug/ml): Mix of Normal and Detached
- 16 hr post exposure % Live ([5]; 128 ug/ml): 0%
- 16 hr post exposure Morphology ([5]; 128 ug/ml): Rounded and Detached
- 24 hr post exposure % Confluent ([5]; 128 ug/ml): 0%
- 24 hr post exposure % Live ([5]; 128 ug/ml): 0%
- 24 hr post exposure Morphology ([5]; 128 ug/ml): Rounded and Detached
- MIC (B. cereus ATCC 7064 [6]): 512 µg/mL (≈ 1490 µM)
- antibacterial activity against B. subtilis (in words) (B. subtilis BGSC 1A1 [7]): active
- MIC (B. subtilis BGSC 1A1 [7]): 32 µg/mL (≈ 92.9 µM)
- MIC (P. aeruginosa ATCC 27853): N/O (N/D)
- MIC (S. pneumoniae ATCC 49619): 128 µg/mL (≈ 372 µM)
- MIC (S. aureus ATCC 29213 [2]; [14]): N/O (N/D)
- MIC (E. faecalis ATCC 29212 [8]): 512 µg/mL (≈ 1490 µM)
- MBC (E. faecalis ATCC 29212 [9]): N/O
- MBC (B. cereus ATCC 7064 [10]; N/O = not observed): N/O
- MBC (E. coli ATCC 25922 [3]): 512 µg/mL (≈ 1490 µM)
- MBC (B. subtilis BGSC 1A1 [11]): IND
- antibacterial activity against E. coli (in words) (E. coli ATCC 25922 [4]): moderate antibacterial activity
- MIC (E. coli ATCC 25922 [4]; [15]): 512 µg/mL (≈ 1490 µM)
- ZOI observed (B. subtilis): ✓

Compound: O=C(NCCN1CCNCC1)c1c(O)c2cccc3c2n(c1=O)CCC3 [Compound 6]
- 16 hr post exposure % Live ([5]; 32 ug/ml): 100%
- 16 hr post exposure Morphology ([5]; 32 ug/ml): Normal
- 24 hr post exposure % Confluent ([5]; 32 ug/ml): 50%
- 24 hr post exposure % Live ([5]; 32 ug/ml): 70%
- 16 hr post exposure % Live ([5]; 64 ug/ml): 60%
- 16 hr post exposure Morphology ([5]; 64 ug/ml): Mix of Normal and Detached
- 24 hr post exposure % Confluent ([5]; 64 ug/ml): 15%
- 24 hr post exposure % Live ([5]; 64 ug/ml): 25%
- 24 hr post exposure Morphology ([5]; 64 ug/ml): Mix of Normal and Detached
- 16 hr post exposure % Live ([5]; 128 ug/ml): 0%
- 16 hr post exposure Morphology ([5]; 128 ug/ml): Rounded and Detached
- 24 hr post exposure % Confluent ([5]; 128 ug/ml): 0%
- 24 hr post exposure % Live ([5]; 128 ug/ml): 0%
- 24 hr post exposure Morphology ([5]; 128 ug/ml): Rounded and Detached
- MIC (B. cereus ATCC 7064 [6]): 128 µg/mL (≈ 359 µM)
- growth inhibition of B. cereus (in words) (B. cereus ATCC 7064 [6]; at moderate concentrations): inhibited growth
- antibacterial activity against B. subtilis (in words) (B. subtilis BGSC 1A1 [7]): active
- MIC (B. subtilis BGSC 1A1 [7]): 32 µg/mL (≈ 89.8 µM)
- antibacterial activity against B. subtilis (in words) (B. subtilis BGSC 1A1 [7]; listed as PKZ 6): inhibited growth
- MIC (P. aeruginosa ATCC 27853): N/O (N/D)
- MBC (S. aureus ATCC 29213 [1]; [14]): N/O
- MIC (S. pneumoniae ATCC 49619): 64 µg/mL (≈ 180 µM)
- growth inhibition of S. pneumoniae (in words) (S. pneumoniae ATCC 49619; at moderate concentrations): inhibited growth
- antibacterial activity against S. aureus (in words) (S. aureus ATCC 29213 [2]): displayed antibacterial properties
- MIC (S. aureus ATCC 29213 [2]; Staphylococcus aureus, ATCC29213, S. aureus ATCC 29213, N/O = not observed, read-out: MIC): 256 µg/mL (≈ 718 µM)
- antibacterial activity against S. aureus (in words) (S. aureus ATCC 29213 [2]; listed as PKZ 6): inhibited growth
- MIC (E. faecalis ATCC 29212 [8]): 128 µg/mL (≈ 359 µM)
- MBC (E. faecalis ATCC 29212 [9]): N/O
- MBC (B. cereus ATCC 7064 [10]; Bacillus cereus, ATCC7064, N/O = not observed, read-out: MBC): 256 µg/mL (≈ 718 µM)
- MBC (E. coli ATCC 25922 [3]): 256 µg/mL (≈ 718 µM)
- MBC (B. subtilis BGSC 1A1 [11]): IND
- antibacterial activity against E. coli (in words) (E. coli ATCC 25922 [4]): moderate antibacterial activity
- MIC (E. coli ATCC 25922 [4]; [15]): 256 µg/mL (≈ 718 µM)
- ZOI observed (B. subtilis): ✓

Compound: CC1CC(NC(=O)C2C3CCC(C3)C2C(=O)O)CC(C)(C)C1 (stereo not drawn) [Compound 0605]
- ZOI observed (S. aureus): ✓
